From PMC7447621, “Chemoenzymatic synthesis of daptomycin analogs active against daptomycin-resistant strains” (Applied Microbiology and Biotechnology, 2020)
Several values for one entry are separate records, joined by “and”; a condition that tells them apart may be missing. Equal entries are not always repeated. Numbered stars: 1 amine (or outer) side, 2 acyl side, 3 side chain; on linkers, the order of the positions; unused ones are H or OH. Bridge positions count the residues as written; N and C are the ends. Square brackets hold non-standard residues; d marks the D form. Peptide text beside a SMILES is read from it. * marks the point of attachment. X5 = C=C(C)/C=C/C(C)c1[nH]c2ccccc2c1C[C@H](N[*:1])C(=O)[*:2]; X1 = O=C([C@H](Cc1c[nH]c2cc(CC3=CCCCC3)ccc12)N[*:1])[*:2]; X3 = C=C/C=C/Cc1[nH]c2ccccc2c1C[C@H](N[*:1])C(=O)[*:2]; Glu(3R-Me) = C[C@H](CC(=O)O)[C@H](N)C(=O)O; Kyn = Nc1ccccc1C(=O)C[C@H](N)C(=O)O; Decanoyl = CCCCCCCCCC(=O)*; Orn = NCCC[C@H](N)C(=O)O

Assays:
[1] = tested on: S. aureus (SAUSA300_1715 NE1656); conditions: DapR, strain JE2 transposon mutant NE1656, BEI NR-48198; MIC90, broth microdilution, MHB + 50 mg L^−1 calcium, 35 °C, 22 h, A600, triplicate
E. faecalis (S613) = conditions: DapS, BEI HM-334; MIC90, broth microdilution, MHB + 50 mg L^−1 calcium, 35 °C, 22 h, A600, triplicate
[2] = tested on: S. aureus (MRSA, ATCC 700787); conditions: DapS, MIC90, broth microdilution, MHB + 50 mg L^−1 calcium, 35 °C, 22 h, A600, triplicate
S. aureus (ATCC 25923) = conditions: DapS strain; MIC90, broth microdilution, MHB + 50 mg L^−1 calcium, inoculum 1×10^5–5×10^5 CFU/mL, 35 °C, 22 h, A600, triplicate; converted from μM
[3] = tested on: S. epidermidis (ATCC 12228); conditions: DapS; MIC90, broth microdilution, MHB + 50 mg L^−1 calcium, 35 °C, 22 h, A600, triplicate
[4] = tested on: S. aureus (hVISA, SR3777); conditions: DapS, BEI NR-50509; MIC90, broth microdilution, MHB + 50 mg L^−1 calcium, 35 °C, 22 h, A600, triplicate
E. faecalis (R712) = conditions: DapR, BEI HM-335; MIC90, broth microdilution, MHB + 50 mg L^−1 calcium, 35 °C, 22 h, A600, triplicate
[5] = tested on: S. aureus (SAUSA300_1713 NE573); conditions: DapR, strain JE2 transposon mutant NE573, BEI NR-47116; MIC90, broth microdilution, MHB + 50 mg L^−1 calcium, 35 °C, 22 h, A600, triplicate
S. aureus (hVISA, SR220) = conditions: DapS, VISA, BEI NR-50512; MIC90, broth microdilution, MHB + 50 mg L^−1 calcium, 35 °C, 22 h, A600, triplicate
[6] = tested on: E. faecalis (hVRE, ATCC 700802); conditions: for MIC: DapS, VRE, MIC90, broth microdilution, MHB + 50 mg L^−1 calcium, 35 °C, 22 h, A600, triplicate
[7] = assay type: physicochemical
From the text: These differences in activity could be due to differences between the structures of Dap and its analogs either in complex with Gram-positive membranes or in their unbound form. However, with no three-dimensional structure data for the analogs, only conjecture can be offered as to the cause. […] [2004]; Jung et al. [2004]), the benzene ring of Trp is thought to stick out away from the peptide core and lie roughly parallel to the main axis of the acyl tail. […] [2017]), which also suffered from a decrease in activity compared with its N1-normal-prenylated regioisomer. Conversely, the diene moieties attached at the C2 position are prone to conjugate addition reactions which would prevent the proper binding conformation or even enable degradation pathways. Therefore, to check their stability, all purified Dap analogs were reinjected on RP-HPLC after their structural and activity characterization (see Supporting Information Fig. S3). […] While future kinetic and engineering studies will likely answer these questions, the SAR identified in this study will inform future Dap development efforts using the […]-based diversification scheme.

[8] = tested on: S. aureus (hVISA, SR4035); conditions: DapS, BEI NR-50510; MIC90, broth microdilution, MHB + 50 mg L^−1 calcium, 35 °C, 22 h, A600, triplicate

SMILES	MIC [1] [µg/mL]	MIC (E. faecalis (S613))	MIC [2] [µg/mL]	MIC (S. aureus (ATCC 25923)) [µg/mL]	MIC [3] [µg/mL]	MIC [4] [µg/mL]	MIC (E. faecalis (R712)) [µg/mL]	MIC [5] [µg/mL]	MIC (S. aureus (hVISA, SR220)) [µg/mL]	MIC [6] [µg/mL]	fold enhanced activity (compared with Dap) ([6]; vancomycin-resistant Enterococcus, Table 1, Fig. S1)	MIC range (DapR S. aureus; DapR S. aureus strains (Table 1), range over the named analogs and strains) [µg/mL]	fold improvement in antibacterial activity over Dap (DapR S. aureus; DapR S. aureus, relative potency, Fig. S1)	stability of the purified product (RP-HPLC chromatogram) [7]	MIC [8] [µg/mL]
C=C(C)/C=C/C(C)c1[nH]c2ccccc2c1C[C@H](NC(=O)CCCCCCCCC)C(=O)N[C@H](CC(N)=O)C(=O)N[C@@H](CC(=O)O)C(=O)N[C@@H]1C(=O)NCC(=O)N[C@@H](CCCN)C(=O)N[C@@H](CC(=O)O)C(=O)N[C@H](C)C(=O)N[C@@H](CC(=O)O)C(=O)NCC(=O)N[C@H](CO)C(=O)N[C@@H]([C@H](C)CC(=O)O)C(=O)N[C@@H](CC(=O)c2ccccc2N)C(=O)O[C@@H]1C (stereo partly drawn) [compound 47, C2R-18-Dap] (Decanoyl-[X5][dN]DTG[Orn]D[dA]DG[dS][Glu(3R-Me)][Kyn]; ester 4-C)	>34.3	>34.3 µg/mL	>34.3	>34.3	34.3	34.3	>34.3	>34.3	>34.3	34.3	–	–	–	–	–
CCCCCCCCCC(=O)N[C@@H](Cc1c[nH]c2cc(CC3=CCCCC3)ccc12)C(=O)N[C@H](CC(N)=O)C(=O)N[C@@H](CC(=O)O)C(=O)N[C@@H]1C(=O)NCC(=O)N[C@@H](CCCN)C(=O)N[C@@H](CC(=O)O)C(=O)N[C@H](C)C(=O)N[C@@H](CC(=O)O)C(=O)NCC(=O)N[C@H](CO)C(=O)N[C@@H]([C@H](C)CC(=O)O)C(=O)N[C@@H](CC(=O)c2ccccc2N)C(=O)O[C@@H]1C [compound 52, C6-20-Dap] (Decanoyl-[X1][dN]DTG[Orn]D[dA]DG[dS][Glu(3R-Me)][Kyn]; ester 4-C)	0.2	0.3 to 0.6 µg/mL and 0.4 µg/mL	–	–	–	–	6.2	0.4	0.5	–	5–15 fold	0.2 to 0.5	30–80 fold	–	–
C=C/C=C/Cc1[nH]c2ccccc2c1C[C@H](NC(=O)CCCCCCCCC)C(=O)N[C@H](CC(N)=O)C(=O)N[C@@H](CC(=O)O)C(=O)N[C@@H]1C(=O)NCC(=O)N[C@@H](CCCN)C(=O)N[C@@H](CC(=O)O)C(=O)N[C@H](C)C(=O)N[C@@H](CC(=O)O)C(=O)NCC(=O)N[C@H](CO)C(=O)N[C@@H]([C@H](C)CC(=O)O)C(=O)N[C@@H](CC(=O)c2ccccc2N)C(=O)O[C@@H]1C [compound 45, C2-15-Dap] (Decanoyl-[X3][dN]DTG[Orn]D[dA]DG[dS][Glu(3R-Me)][Kyn]; ester 4-C)	>8.4	>8.4 µg/mL	>33.7	16.9	16.9	16.9	>8.4	>8.4	33.7	33.7	–	–	–	significant degradation	>33.7
